PubChem BioAssay (NCI)
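Assay format: 96-well plates, 48-hour exposure. Definition used: TGI = concentration required for complete inhibition of growth.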

Key:
Assay in all cases: NCI anticancer screen, dose series, 48 h
[1] = test system: CCRF-CEM leukemia
[2] = test system: SR leukemia
[3] = test system: EKVX NSCLC
[4] = test system: DLD-1 colon
[5] = test system: IGROV1 ovarian
[6] = test system: OVCAR-5 ovarian
[7] = test system: OVCAR-8 ovarian
[8] = test system: CAKI-1 renal
[9] = test system: NCI-H23 lung
[10] = test system: SK-MEL-2 melanoma
[11] = test system: NCI-H226 lung
[12] = test system: SK-MEL-28 melanoma
[13] = test system: SN12C renal
[14] = test system: LOX IMVI melanoma
[15] = test system: NCI-H522 lung
[16] = test system: UO-31 renal
[17] = test system: A498 renal
[18] = test system: HOP-92 NSCLC
[19] = test system: A549 NSCLC
[20] = test system: DMS 273 small cell lung
[21] = test system: KM12 colon
[22] = test system: SW-620 colon
[23] = test system: HCC-2998 colon
[24] = test system: U251 CNS
[25] = test system: TK-10 renal
[26] = test system: MOLT-4 leukemia
[27] = test system: HL-60(TB) leukemia
[28] = test system: NCI-H460 lung
[29] = test system: DMS 114 small cell lung
[30] = test system: HT29 colon
[31] = test system: XF 498 CNS
[32] = test system: RXF 393 renal
[33] = test system: UACC-257 melanoma
[34] = test system: LXFL 529 NSCLC
[35] = test system: SF-295 CNS
[36] = test system: MALME-3M melanoma
[37] = test system: SNB-19 CNS
[38] = test system: UACC-62 melanoma
[39] = test system: KM20L2 colon
[40] = test system: SF-268 CNS
[41] = test system: SF-539 CNS
[42] = test system: SK-OV-3 ovarian
[43] = test system: COLO 205 colon
[44] = test system: 786-0 renal
[45] = test system: HOP-62 NSCLC
[46] = test system: K-562 leukemia
[47] = test system: ACHN renal
[48] = test system: OVCAR-4 ovarian
[49] = test system: HCT-116 colon
[50] = test system: SNB-78 CNS
[51] = test system: HOP-18 NSCLC
[52] = test system: RPMI-8226 leukemia
[53] = test system: SK-MEL-5 melanoma
[54] = test system: M19-MEL melanoma
[55] = test system: OVCAR-3 ovarian
[56] = test system: SNB-75 CNS
[57] = test system: T-47D breast
[58] = test system: M14 melanoma
[59] = test system: BT-549 breast
[60] = test system: MDA-N
[61] = test system: MDA-MB-435
[62] = test system: DU-145 prostate
[63] = test system: NCI/ADR-RES ovarian
[64] = test system: HS 578T breast
[65] = test system: MCF7 breast
[66] = test system: PC-3 prostate
[67] = test system: HCT-15 colon
[68] = test system: MDA-MB-231 breast

COc1ccc(CC(=O)NCCc2ccc(OC)c(OC)c2)cc1Br
TGI [1]: > 100 µM | TGI [2]: > 100 µM | TGI [3]: > 100 µM | TGI [4]: > 100 µM | TGI [5]: > 100 µM | TGI [6]: > 100 µM | TGI [7]: > 100 µM | TGI [8]: > 100 µM | TGI [9]: > 100 µM | TGI [10]: > 100 µM | TGI [11]: > 100 µM | TGI [12]: > 100 µM | TGI [13]: > 100 µM | TGI [14]: > 100 µM | TGI [15]: > 100 µM | TGI [16]: > 100 µM | TGI [17]: > 100 µM | TGI [18]: > 100 µM | TGI [19]: > 100 µM | TGI [20]: > 100 µM | TGI [21]: > 100 µM | TGI [22]: > 100 µM | TGI [23]: > 100 µM | TGI [24]: > 100 µM | TGI [25]: > 100 µM | TGI [26]: > 100 µM | TGI [27]: > 100 µM | TGI [28]: > 100 µM | TGI [29]: > 100 µM | TGI [30]: > 100 µM | TGI [31]: > 100 µM | TGI [32]: > 100 µM | TGI [33]: > 100 µM | TGI [34]: > 100 µM | TGI [35]: > 100 µM | TGI [36]: > 100 µM | TGI [37]: > 100 µM | TGI [38]: > 100 µM | TGI [39]: > 100 µM | TGI [40]: > 100 µM | TGI [41]: > 100 µM | TGI [42]: > 100 µM | TGI [43]: > 100 µM | TGI [44]: > 100 µM | TGI [45]: > 100 µM | TGI [46]: > 100 µM | TGI [47]: > 100 µM | TGI [48]: > 100 µM

O=[N+]([O-])c1cc(C2SCc3nc4ccccc4n32)ccc1Cl (configuration not stated)
TGI [1]: 85.9 µM | TGI [2]: > 100 µM | TGI [3]: > 100 µM | TGI [4]: > 100 µM | TGI [5]: > 100 µM | TGI [6]: 76.8 µM | TGI [49]: 40.4 µM | TGI [7]: > 100 µM | TGI [8]: > 100 µM | TGI [50]: 80.1 µM | TGI [9]: 78.1 µM | TGI [51]: > 100 µM | TGI [10]: 50.9 µM | TGI [11]: 61.8 µM | TGI [12]: > 100 µM | TGI [13]: 33.8 µM | TGI [52]: 60.2 µM | TGI [15]: 77.1 µM | TGI [16]: 58.6 µM | TGI [17]: 69.6 µM | TGI [18]: 49.3 µM | TGI [19]: > 100 µM | TGI [20]: 58 µM | TGI [21]: 31.3 µM | TGI [22]: > 100 µM | TGI [53]: 28.3 µM | TGI [23]: 34.3 µM | TGI [24]: > 100 µM | TGI [54]: 53.9 µM | TGI [25]: > 100 µM | TGI [26]: > 100 µM | TGI [27]: 42.4 µM | TGI [28]: > 100 µM | TGI [29]: 54.3 µM | TGI [30]: > 100 µM | TGI [32]: 79 µM | TGI [33]: 53.1 µM | TGI [34]: 99.7 µM | TGI [35]: > 100 µM | TGI [36]: > 100 µM | TGI [37]: > 100 µM | TGI [38]: 52.6 µM | TGI [55]: 67.6 µM | TGI [40]: 81.1 µM | TGI [41]: 89.5 µM | TGI [42]: 66.2 µM | TGI [43]: 46.6 µM | TGI [44]: > 100 µM | TGI [46]: > 100 µM | TGI [47]: > 100 µM | TGI [56]: > 100 µM

C=CC[C@@]1([C@H](C=C)COCc2ccc(OC)cc2)CC[C@]2(C)OC(C)(C)[C@@H](c3ccccc3)N2C1=S
TGI [1]: > 100 µM | TGI [2]: > 100 µM | TGI [3]: > 100 µM | TGI [6]: > 100 µM | TGI [49]: > 100 µM | TGI [7]: > 100 µM | TGI [8]: > 100 µM | TGI [9]: > 100 µM | TGI [10]: 62.3 µM | TGI [11]: > 100 µM | TGI [12]: > 100 µM | TGI [57]: > 100 µM | TGI [13]: > 100 µM | TGI [58]: > 100 µM | TGI [14]: > 100 µM | TGI [52]: > 100 µM | TGI [59]: > 100 µM | TGI [60]: > 100 µM | TGI [15]: > 100 µM | TGI [16]: > 100 µM | TGI [17]: > 100 µM | TGI [18]: > 100 µM | TGI [19]: > 100 µM | TGI [21]: > 100 µM | TGI [22]: > 100 µM | TGI [61]: > 100 µM | TGI [53]: 61.8 µM | TGI [23]: > 100 µM | TGI [62]: > 100 µM | TGI [24]: > 100 µM | TGI [25]: > 100 µM | TGI [63]: > 100 µM | TGI [26]: > 100 µM | TGI [27]: > 100 µM | TGI [28]: > 100 µM | TGI [30]: > 100 µM | TGI [64]: > 100 µM | TGI [32]: > 100 µM | TGI [33]: > 100 µM | TGI [35]: > 100 µM | TGI [36]: > 100 µM | TGI [65]: > 100 µM | TGI [66]: > 100 µM | TGI [67]: > 100 µM | TGI [37]: > 100 µM | TGI [38]: > 100 µM | TGI [68]: > 100 µM | TGI [55]: > 100 µM | TGI [40]: > 100 µM | TGI [41]: > 100 µM | TGI [42]: > 100 µM | TGI [43]: 41.6 µM | TGI [44]: > 100 µM | TGI [45]: > 100 µM | TGI [46]: > 100 µM | TGI [47]: > 100 µM | TGI [56]: > 100 µM | TGI [48]: > 100 µM
